Test systems include A549 NSCLC; A498 renal; LOX IMVI melanoma; NCI-H522 lung; MALME-3M melanoma; MOLT-4 leukemia; SK-MEL-2 melanoma; HCT-116 colon; SK-MEL-28 melanoma.
Experiment in all cases: NCI anticancer screen, dose series, 48 h

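The compound was tested at five concentrations on cells cultured in 96-well plates, with a 48-hour exposure period. TGI: concentration producing complete growth inhibition.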

Take `O=[N+]([O-])c1cccc(C2=NN(c3ccccc3)C3c4cc(Br)ccc4OCC23)c1` (stereo not given): the TGI in the assay with A549 NSCLC, in the assay on A498 renal, in the assay on LOX IMVI melanoma, in the assay on NCI-H522 lung, in the assay with MALME-3M melanoma and with MOLT-4 leukemia was > 100 µM in each case. Besides, the TGI in the assay with SK-MEL-2 melanoma, in the assay on HCT-116 colon and with SK-MEL-28 melanoma was > 100 µM throughout.
`CCCCCCCC(=O)OCC(COC(=O)C(C)(C)C)OC(=O)Cc1ccccc1` (stereo not given): the TGI in the assay with A549 NSCLC, in the assay with A498 renal, in the assay with LOX IMVI melanoma, in the assay with MALME-3M melanoma, in the assay with MOLT-4 leukemia and with HCT-116 colon was > 100 µM in each case. The TGI in the assay with SK-MEL-28 melanoma was > 100 µM.
Regarding `C[C@]12CCC3[C@@H](CCC45OC4C(=O)CC[C@]35C)C1Cc1cnn(-c3ccc(F)cc3)c1N2` (stereo not given in full), the TGI was > 100 µM in the assay with A549 NSCLC; 31.9 µM with LOX IMVI melanoma; 34.8 µM in the assay on NCI-H522 lung; > 100 µM in the assay on MALME-3M melanoma; 94.7 µM with MOLT-4 leukemia; > 100 µM in the assay on SK-MEL-2 melanoma. In addition, the results for the TGI in the assay on HCT-116 colon and in the assay on SK-MEL-28 melanoma were 29 µM and 85.2 µM, respectively.
In the case of `Cc1cc([N+](=O)[O-])c(C)c2c1[nH]c1ccc(Cl)cc12`, the TGI with A549 NSCLC is > 100 µM; with LOX IMVI melanoma it was > 100 µM; in the assay on NCI-H522 lung it was 46 µM; with MALME-3M melanoma, > 100 µM; in the assay with MOLT-4 leukemia, > 100 µM; in the assay with SK-MEL-2 melanoma, > 100 µM. For the same compound, the TGI in the assay with HCT-116 colon and in the assay with SK-MEL-28 melanoma was > 100 µM each time.
For `Cc1ccc2cccc(-c3cccc4ccccc34)c2n1`, the TGI in the assay with A549 NSCLC is > 100 µM; in the assay on A498 renal, 46 µM; in the assay with LOX IMVI melanoma it was 31.3 µM; with NCI-H522 lung, 66.5 µM; in the assay on MALME-3M melanoma, > 100 µM; in the assay on MOLT-4 leukemia, 40.6 µM. Also, the values for the TGI with SK-MEL-2 melanoma, in the assay on HCT-116 colon and in the assay on SK-MEL-28 melanoma were 37.5 µM, 95 µM and > 100 µM, respectively.
Take `CC1CC(N2CCOCC2)=Nc2ccccc2N1C` (stereo not given): the TGI in the assay with A549 NSCLC, in the assay with A498 renal, with NCI-H522 lung, in the assay on MALME-3M melanoma, in the assay on MOLT-4 leukemia and in the assay with SK-MEL-2 melanoma was > 100 µM throughout. For the same compound, the TGI with HCT-116 colon and with SK-MEL-28 melanoma was > 100 µM each time.
Take `CC1=NN(C(=O)Cc2ccccc2)C(=O)/C1=C\c1ccc(O)cc1`: the TGI in the assay on A549 NSCLC, with A498 renal, with LOX IMVI melanoma, in the assay with NCI-H522 lung, with MALME-3M melanoma and in the assay with MOLT-4 leukemia was > 100 µM in each case. Further, the TGI in the assay on SK-MEL-2 melanoma, in the assay on HCT-116 colon and with SK-MEL-28 melanoma was > 100 µM throughout.
Turning to `O=[N+]([O-])c1ccc(C[P+]2(c3ccccc3)CCCCC2)cc1`, the TGI in the assay with A549 NSCLC, in the assay with A498 renal, with LOX IMVI melanoma, with NCI-H522 lung, in the assay with MALME-3M melanoma and in the assay on MOLT-4 leukemia was > 100 µM in each case. Further, the TGI in the assay with SK-MEL-2 melanoma, in the assay on HCT-116 colon and in the assay on SK-MEL-28 melanoma was > 100 µM each time.
Take `COc1ccc(CNc2cnc3ccc(N)cc3n2)cc1`: the TGI in the assay with A549 NSCLC, in the assay with LOX IMVI melanoma, in the assay on NCI-H522 lung, in the assay with MALME-3M melanoma, with MOLT-4 leukemia and in the assay with SK-MEL-2 melanoma was > 100 µM in each case. Further, the TGI in the assay on HCT-116 colon was 11.7 µM; with SK-MEL-28 melanoma it was > 100 µM.
In the case of `CN(C)c1nc(Oc2nc(N(C)C)nc(N(C)C)n2)nc(N(C)C)n1`, the TGI with A549 NSCLC, with A498 renal, in the assay with LOX IMVI melanoma, in the assay with NCI-H522 lung, in the assay with MALME-3M melanoma and with MOLT-4 leukemia was > 100 µM throughout. Besides, the TGI in the assay with SK-MEL-2 melanoma, in the assay on HCT-116 colon and in the assay on SK-MEL-28 melanoma was > 100 µM throughout.
Consider `COc1cc(C)c(CC/C(C)=C/Cc2cc(O)ccc2O)c(C)c1C`, for which the TGI in the assay with A549 NSCLC, with A498 renal, with NCI-H522 lung, in the assay with MALME-3M melanoma, with MOLT-4 leukemia and in the assay with SK-MEL-2 melanoma was > 25 µM throughout. Moreover, the TGI with HCT-116 colon and in the assay with SK-MEL-28 melanoma was > 25 µM throughout.
On to `N#CNC(N)=NCc1ccccc1`, for which the TGI in the assay with A549 NSCLC, in the assay on A498 renal, in the assay on LOX IMVI melanoma, in the assay with NCI-H522 lung, with MALME-3M melanoma and in the assay on MOLT-4 leukemia was > 100 µM throughout. In addition, the TGI in the assay with SK-MEL-2 melanoma, in the assay on HCT-116 colon and in the assay with SK-MEL-28 melanoma was > 100 µM each time.
`Cc1c(N2CCOCC2)nc2ccc(Cl)cc2c1-c1ccccc1`: the TGI in the assay on A549 NSCLC, in the assay on A498 renal, in the assay with LOX IMVI melanoma, in the assay on NCI-H522 lung, in the assay with MALME-3M melanoma and with MOLT-4 leukemia was > 100 µM each time. Further, the TGI in the assay on SK-MEL-2 melanoma, in the assay on HCT-116 colon and in the assay with SK-MEL-28 melanoma was > 100 µM throughout.
